molecular target: not listed separately; test: Displacement of [3H]gabapentin from Voltage-dependent calcium channel subunit alpha-2/delta in pig cerebral cortex; format: tissue-based, Sus scrofa; conditions: not given

First: O=C(O)[C@@H]1C[C@H](COc2cccc(Cl)c2)CN1
Second: O=C(O)[C@@H]1C[C@H](COc2cccc(F)c2)CN1
The IC50 of the first is 1.9-fold lower: 13 nM for the first, 25 nM for the second. The first is the more potent here.

Going from `O=C(O)[C@@H]1C[C@H](Cc2cc(F)ccc2F)CN1` to `O=C(O)[C@@H]1C[C@H](Cc2cccc(F)c2F)CN1`, the IC50 rises from 10 nM to 27 nM (2.7-fold).

Compared with `O=C(O)[C@@H]1C[C@H](Cc2ccccc2)CN1`, `O=C(O)[C@@H]1C[C@H](Cc2ccccc2Cl)CN1` is 34-fold lower in IC50: 272 nM for the first, 8 nM for the second. The second is the more potent here.

Going from `O=C(O)[C@@H]1C[C@H](Oc2cccc(Cl)c2)CN1` to `O=C(O)[C@@H]1C[C@H](OCc2ccc(Cl)cc2)CN1`, the IC50 rises from 4 nM to 48 nM (12-fold). The first is the more potent here.

Compared with `O=C(O)[C@@H]1C[C@H](Cc2ccccc2F)CN1`, `O=C(O)[C@H]1C[C@@H](Cc2cccc(F)c2)CN1` is higher in IC50: 108 nM for the first, over 10000 nM for the second.

First: Cl.O=C(O)[C@@H]1C[C@H](Cc2cccc(F)c2)CN1
Second: COc1cccc(C[C@@H]2CN[C@H](C(=O)O)C2)c1
The IC50 of the first is 1.6-fold lower: 17 nM for the first, 28 nM for the second. The first is the more potent here.

First: CCc1cccc(C[C@@H]2CN[C@H](C(=O)O)C2)c1
Second: O=C(O)[C@@H]1C[C@H](Cc2cccc(OC(F)(F)F)c2)CN1
The IC50 of the first is 6.8-fold higher: 27 nM for the first, 4 nM for the second. The second is the more potent here.

`O=C(O)[C@@H]1C[C@H](Cc2cc(Cl)ccc2Cl)CN1` gave an IC50 of 5 nM.

test system: not listed separately; test: Lipophilicity, log D of the compound; format: physicochemical; conditions: octanol/water

Going from `O=C(O)[C@@H]1C[C@H](COc2cccc(F)c2)CN1` to `Cl.O=C(O)[C@@H]1C[C@H](Cc2cccc(F)c2)CN1`, the logD rises from -0.3 to 0.1.

For `O=C(O)[C@@H]1C[C@H](Cc2ccccc2Cl)CN1`, the logD was 0.6.

test system: not listed separately; test: Plasma protein binding in human; format: ADME, cell-free; conditions: read-out: PPB (converted)

Compared with `O=C(O)[C@@H]1C[C@H](COc2cccc(F)c2)CN1`, `Cl.O=C(O)[C@@H]1C[C@H](Cc2cccc(F)c2)CN1` is higher in fraction unbound: 0.32 for the first, 0.73 for the second.

test system: not listed separately; test: Plasma protein binding in rat; format: ADME, cell-free; conditions: read-out: PPB (converted)

Compared with `O=C(O)[C@@H]1C[C@H](COc2cccc(F)c2)CN1`, `Cl.O=C(O)[C@@H]1C[C@H](Cc2cccc(F)c2)CN1` is lower in fraction unbound: 0.91 for the first, 0.82 for the second.

Going from `O=C(O)[C@@H]1C[C@H](Oc2cccc(Cl)c2)CN1` to `O=C(O)[C@@H]1C[C@H](OCc2ccc(Cl)cc2)CN1`, the fraction unbound rises from 0.19 to 0.65.

With `O=C(O)[C@@H]1C[C@H](Cc2ccccc2Cl)CN1` the fraction unbound was 0.67.

test system: not listed separately; test: Half life in rat; format: ADME, organism-based; conditions: in vivo

`O=C(O)[C@@H]1C[C@H](COc2cccc(F)c2)CN1` and `Cl.O=C(O)[C@@H]1C[C@H](Cc2cccc(F)c2)CN1` are within 1.5-fold of each other in half-life: 1.4 h for the first, 1.6 h for the second.

`O=C(O)[C@@H]1C[C@H](Oc2cccc(Cl)c2)CN1` and `O=C(O)[C@@H]1C[C@H](Cc2ccccc2Cl)CN1` are within 1.5-fold of each other in half-life: 0.4 h for the first, 0.5 h for the second.

test system: not listed separately; test: Oral bioavailability in rat; format: ADME, organism-based; conditions: in vivo

Going from `O=C(O)[C@@H]1C[C@H](Oc2cccc(Cl)c2)CN1` to `Cl.O=C(O)[C@@H]1C[C@H](Cc2cccc(F)c2)CN1`, the bioavailability falls from 100% to 89%.

organism: Rattus norvegicus; test: Unbound clearance in rat urine; format: ADME, organism-based; conditions: in vivo

`O=C(O)[C@@H]1C[C@H](COc2cccc(F)c2)CN1` and `Cl.O=C(O)[C@@H]1C[C@H](Cc2cccc(F)c2)CN1` are within 1.5-fold of each other in CL: 7 mL/min/kg for the first, 6 mL/min/kg for the second.

Compared with `O=C(O)[C@@H]1C[C@H](Oc2cccc(Cl)c2)CN1`, `O=C(O)[C@@H]1C[C@H](OCc2ccc(Cl)cc2)CN1` is 1.6-fold lower in CL: 41 mL/min/kg for the first, 26 mL/min/kg for the second.

`O=C(O)[C@@H]1C[C@H](Cc2ccccc2Cl)CN1` gave a CL of 15 mL/min/kg.

test system: not listed separately; test: Dissociation constant, pKa of the compound; format: physicochemical; conditions: not given

First: O=C(O)[C@@H]1C[C@H](Oc2cccc(Cl)c2)CN1
Second: Cl.O=C(O)[C@@H]1C[C@H](Cc2cccc(F)c2)CN1
The pKa of the first is lower: 8.9 for the first, 10.1 for the second.

test system: not listed separately; test: Ratio of drug level in CSF to plasma in rat; format: ADME; conditions: not given

`Cl.O=C(O)[C@@H]1C[C@H](Cc2cccc(F)c2)CN1` showed a Kp of 0.004.

test system: not listed separately; test: Clearance in dog at 0.5 mg/kg, po; format: ADME, organism-based, Canis lupus familiaris; set-up: dose 0.5 mg/kg, route oral; conditions: in vivo

Molecule `Cl.O=C(O)[C@@H]1C[C@H](Cc2cccc(F)c2)CN1` has a CL/F of 0.4 mL/min/kg.

test system: not listed separately; test: Half life in dog at 0.5 mg/kg, po; format: ADME, organism-based, Canis lupus familiaris; set-up: dose 0.5 mg/kg, route oral; conditions: in vivo

Molecule `Cl.O=C(O)[C@@H]1C[C@H](Cc2cccc(F)c2)CN1` has a half-life of 26 h.

test system: not listed separately; test: Inhibition of Voltage-dependent calcium channel subunit alpha-2/delta; conditions: not given

Compared with `CC(C)C[C@H](CN)CC(=O)O` [PREGABALIN], `NCC1(CC(=O)O)CCCCC1` [GABAPENTIN] is 1.8-fold higher in IC50: 80 nM for the first, 140 nM for the second. The first is the more potent here.
